# Where two headings read alike, the source gives them in different places.
# Assays:
# [1] = Plasma and tissue concentration in high fat diet mice, day 36; assay type: in vivo, mice (Mus musculus—C57BL-6); conditions: for concentration at 1 h / concentration at 3 h / concentration at 4 h: male, C57BL-6, mouse, oral
# Description: Doses were 30 and 50 mg/kg and administered orally (p.o.) once a day (QD) for 36 days. Dose volume was 10 mL/kg, which was administered to male, 18-22-week-old mice (Mus musculus—C57BL-6) with body weight between 18-19.4 g each. Mice were grouped into 3 groups of 10. The diet for induced obesity mice were selected as a test system
# Plasma lipid profile: On day 34 total cholesterol levels, triglyceride, HDL, and LDL levels were detected. Plasma insulin (fasting) and plasma NEFA (fasting) was tested on day 36. Cumulative food consumption was measured daily starting from day 1 onwards up to end of the study period. Liver, heart, jejunum, and brain tissue were collected for additional testing.
# db/db mice = conditions: for Plasma Cholesterol / Plasma HDL / Plasma LDL / Plasma Triglyceride: end of the study; for Absolute Liver Weight / Absolute Liver Weight (g) [table follows b2014 on epididymal adipose tissue weight] / Relative Epididymal Tissue Weight / Relative Liver Weight: necropsy; for Fasting Plasma Glucose (mg/dL), OGTT: OGTT day 21, before glucose load 1 gram/kg
# Description: The doses of the test item to be administered were calculated daily in mg/kg based on the latest bodyweight of the animal. The dose volume was calculated based on mg/kg of body weight and adjusted with each bodyweight collection. Dose and route of the test compounds administration are selected as per the supporting literature.
# Male db/db mice were procured from The Jackson Laboratory. All the animals were allowed to quarantine for 7 days and acclimatize for one day prior to experiment initiation. During this period, mice were observed daily once for clinical signs. On Day 1, Animals were randomized based on body weight and blood glucose levels (Accu-Chek) into three groups. […] During the study period the body weight of mice was recorded weekly thrice, and clinical scoring was done on daily basis. The OGTT was performed on day 21. On day 36 blood was collected and centrifuged at 4° C., 10,000 RPM for 10 minutes for plasma collection. The plasma stored at −80° C. for estimation of plasma HDL and LDL. All the animals were humanely sacrificed by CO2. At the time of necropsy liver, adipose tissue and pancreas weight were taken. The liver and pancreas were stored at −80° C.
# A mixture of DMSO (2%), Cremophor EL (2%), Tween 80 (1%), 0.5% methyl cellulose (35%), and water (60%) was used for the formulation. Doses were prepared at concentrations of 30 and 50 mg/kg. Administration was oral, daily for 36 days. Male mice (Mus musculus; db/db C57BL/6) aged 8-9 weeks and weighing less than or equal to 40 grams were used for the study. Groups were assigned 10 mice per group.
# During the study period body weight of mice were recorded weekly thrice and clinical scoring were done on daily basis. The OGTT was performed on day 21. On day 36 blood was collected and centrifuged at 4° C., 10000 RPM for 10 minutes for plasma collection. The plasma stored at −80° C. for estimation of plasma HDL and LDL. All the animals were humanely sacrificed by CO2. At the time of necropsy liver, adipose tissue and pancreas weight were taken. Liver and pancreas were stored at −80° C.
# Cage-side observations were made to detect any changes and general activity of the animals.
# Body weight of each mouse was recorded at the time of randomization and thrice a week during study period. OGTT were done at day 21. On day 20 mice were fasted over night and on day 21 mice were treated with respective treatment-60 minute prior to glucose load 1 gram/kg. Plasma glucose was measured at 0 min (before glucose load), 15 min, 30 min, 60 min, 90 min and 120 min.
# Glucose estimation in urine was done at terminal point on day 32. The urine of individual mice was collected by placing the mice in metabolic cages. Urine glucose levels were measured by calorimetric method in collected urine.
# Plasma lipid profile: Triglyceride, HDL and LDL were performed at the end of the study by appropriate kit or using Fully Auto Biochemistry Analyzer Selectra PRO M Lite. Fat pad weight was recorded at terminal point. Fructosamine were measured by ELISA kit (Biomol, G-MOEB2562.96).
# All data is expressed as mean±SEM unless otherwise noted. Statistical analysis was done with GraphPad Prism-5 using one-way ANOVA followed by Dunnett's test/Tukey's post hoc test. Data were considered statistically significant if P value is less than 0.05.
smiles,measurement,setting,value
"O=c1[nH]c(-c2c[nH]c3cc(F)c(-c4ccc(C5(O)CCC5)cc4)c(F)c23)no1 [Compound I-11, 3-(4,6-difluoro-5-(4-(1-hydroxycyclobutyl)phenyl)-1H-indol-3-yl)-1,2,4-oxadiazol-5(4H)-one]",Brain (ng/mL),"[1]; 30 mg/kg, 1 hr",BLQ
same,Brain (ng/mL),"[1]; 30 mg/kg, 3 hr",BLQ
same,Skeletal muscle (ng/mL),"[1]; 30 mg/kg, 3 hr",BLQ
same,Brain (ng/mL),"[1]; 50 mg/kg, 1 hr",BLQ
same,Skeletal muscle (ng/mL),"[1]; 50 mg/kg, 1 hr",BLQ
same,Brain (ng/mL),"[1]; 50 mg/kg, 3 hr",BLQ
same,Skeletal muscle (ng/mL),"[1]; 50 mg/kg, 3 hr",BLQ
same,Brain (ng/mL),"[1]; 50 mg/kg, 4 hr",BLQ
same,Skeletal muscle (ng/mL),"[1]; 50 mg/kg, 4 hr",BLQ
same,concentration at 1 h,"[1]; adipose tissue (abdominal fat), 30 mg/kg, 1 hr, read-out: Adipose tissue (abdominal fat)",57 ng/mL
same,concentration at 3 h,"[1]; adipose tissue (abdominal fat), 30 mg/kg, 3 hr, read-out: Adipose tissue (abdominal fat)",23 ng/mL
same,concentration at 4 h,"[1]; adipose tissue (abdominal fat), 30 mg/kg, 4 hr, read-out: Adipose tissue (abdominal fat)",38 ng/mL
same,concentration at 1 h,"[1]; adipose tissue (abdominal fat), 50 mg/kg, 1 hr, read-out: Adipose tissue (abdominal fat)",2000 ng/mL
same,concentration at 3 h,"[1]; adipose tissue (abdominal fat), 50 mg/kg, 3 hr, read-out: Adipose tissue (abdominal fat)",1590 ng/mL
same,concentration at 4 h,"[1]; adipose tissue (abdominal fat), 50 mg/kg, 4 hr, read-out: Adipose tissue (abdominal fat)",1760 ng/mL
same,concentration at 4 h,"[1]; brain, 30 mg/kg, 4 hr, read-out: Brain",6 ng/mL
same,concentration at 1 h,"[1]; heart, 30 mg/kg, 1 hr, read-out: Heart",103 ng/mL
same,concentration at 3 h,"[1]; heart, 30 mg/kg, 3 hr, read-out: Heart",32 ng/mL
same,concentration at 4 h,"[1]; heart, 30 mg/kg, 4 hr, read-out: Heart",31 ng/mL
same,concentration at 1 h,"[1]; heart, 50 mg/kg, 1 hr, read-out: Heart",52 ng/mL
same,concentration at 3 h,"[1]; heart, 50 mg/kg, 3 hr, read-out: Heart",36 ng/mL
same,concentration at 4 h,"[1]; heart, 50 mg/kg, 4 hr, read-out: Heart",102 ng/mL
same,concentration at 1 h,"[1]; jejunum, 30 mg/kg, 1 hr, read-out: Jejunum",124000 ng/mL
same,concentration at 3 h,"[1]; jejunum, 30 mg/kg, 3 hr, read-out: Jejunum",35 ng/mL
same,concentration at 4 h,"[1]; jejunum, 30 mg/kg, 4 hr, read-out: Jejunum",27 ng/mL
same,concentration at 1 h,"[1]; jejunum, 50 mg/kg, 1 hr, read-out: Jejunum",4390 ng/mL
same,concentration at 3 h,"[1]; jejunum, 50 mg/kg, 3 hr, read-out: Jejunum",165 ng/mL
same,concentration at 4 h,"[1]; jejunum, 50 mg/kg, 4 hr, read-out: Jejunum",55 ng/mL
same,concentration at 1 h,"[1]; liver, 30 mg/kg, 1 hr, read-out: Liver",118 ng/mL
same,concentration at 3 h,"[1]; liver, 30 mg/kg, 3 hr, read-out: Liver",74 ng/mL
same,concentration at 4 h,"[1]; liver, 30 mg/kg, 4 hr, read-out: Liver",106 ng/mL
same,concentration at 1 h,"[1]; liver, 50 mg/kg, 1 hr, read-out: Liver",80 ng/mL
same,concentration at 3 h,"[1]; liver, 50 mg/kg, 3 hr, read-out: Liver",64 ng/mL
same,concentration at 4 h,"[1]; liver, 50 mg/kg, 4 hr, read-out: Liver",71 ng/mL
same,concentration at 1 h,"[1]; plasma, 30 mg/kg, 1 hr, read-out: Plasma",627 ng/mL
same,concentration at 3 h,"[1]; plasma, 30 mg/kg, 3 hr, read-out: Plasma",147 ng/mL
same,concentration at 4 h,"[1]; plasma, 30 mg/kg, 4 hr, read-out: Plasma",121 ng/mL
same,concentration at 1 h,"[1]; plasma, 50 mg/kg, 1 hr, read-out: Plasma",501 ng/mL
same,concentration at 3 h,"[1]; plasma, 50 mg/kg, 3 hr, read-out: Plasma",199 ng/mL
same,concentration at 4 h,"[1]; plasma, 50 mg/kg, 4 hr, read-out: Plasma",112 ng/mL
same,concentration at 1 h,"[1]; skeletal muscle, 30 mg/kg, 1 hr, read-out: Skeletal muscle",287 ng/mL
same,concentration at 4 h,"[1]; skeletal muscle, 30 mg/kg, 4 hr, read-out: Skeletal muscle",56 ng/mL
same,Fasting Fructosamine,db/db mice; 30 mg/kg p.o. QD,1164.8 ± 105.5 ng/mL
same,Fasting Plasma HbA1c,db/db mice; 30 mg/kg p.o. QD,60.13 ± 7.73 ng/mL
same,Fasting Plasma Insulin,db/db mice; 30 mg/kg p.o. QD,4.6 ± 0.5 ng/mL
same,Fasting Blood Glucose (~12 hrs),"db/db mice; 30 mg/kg p.o. QD, Day 36",335.70 ± 16.88 mg/dL
same,Urine Glucose,"db/db mice; 30 mg/kg p.o. QD, day 32",1694.43 ± 10.56 mg/dL
same,Plasma Cholesterol,db/db mice; 30 mg/kg p.o. QD,118.13 ± 8.39 mg/dL
same,Plasma HDL,db/db mice; 30 mg/kg p.o. QD,145.41 ± 11.48 mg/dL
same,Plasma LDL,db/db mice; 30 mg/kg p.o. QD,23.58 ± 2.93 mg/dL
same,Plasma Triglyceride,db/db mice; 30 mg/kg p.o. QD,156.87 ± 17.41 mg/dL
same,Absolute Liver Weight,db/db mice; 30 mg/kg p.o. QD,2.34 ± 0.07 g
same,Absolute Liver Weight (g) [table follows b2014 on epididymal adipose tissue weight],db/db mice; 30 mg/kg p.o. QD,2.42 ± 0.10 g
same,Relative Epididymal Tissue Weight,db/db mice; 30 mg/kg p.o. QD,0.057 ± 0.002 g
same,Relative Liver Weight,db/db mice; 30 mg/kg p.o. QD,0.055 ± 0.001 g
same,"15 min Plasma Glucose (mg/dL), OGTT","db/db mice; 30 mg/kg, OGTT day 21",676.20 ± 19.94 mg/dL
same,"30 min Plasma Glucose (mg/dL), OGTT","db/db mice; 30 mg/kg, OGTT day 21",619.54 ± 26.68 mg/dL
same,"60 min Plasma Glucose (mg/dL), OGTT","db/db mice; 30 mg/kg, OGTT day 21",520.87 ± 46.63 mg/dL
same,"120 min Plasma Glucose (mg/dL), OGTT","db/db mice; 30 mg/kg, OGTT day 21",397.78 ± 9.65 mg/dL
same,"glucose area under the curve (AUC), OGTT","db/db mice; 30 mg/kg, OGTT day 21",61613.10 ± 2572.98 mg·min/dL
same,"Fasting Plasma Glucose (mg/dL), OGTT",db/db mice; 30 mg/kg,287.70 ± 34.54 mg/dL
same,decrease in the plasma glucose compared to vehicle control (OGTT),"db/db mice; 30 mg/kg, statistically not significant",7.5%
same,Fasting Fructosamine,db/db mice; 50 mg/kg p.o. QD,954.2 ± 45.6 ng/mL
same,Fasting Plasma HbA1c,db/db mice; 50 mg/kg p.o. QD,39.82 ± 4.31 ng/mL
same,Fasting Plasma Insulin,db/db mice; 50 mg/kg p.o. QD,5.2 ± 0.8 ng/mL
same,Plasma Cholesterol,db/db mice; 50 mg/kg p.o. QD,97.30 ± 8.76 mg/dL
same,Plasma HDL,db/db mice; 50 mg/kg p.o. QD,110.76 ± 9.17 mg/dL
same,Plasma LDL,db/db mice; 50 mg/kg p.o. QD,14.78 ± 1.62 mg/dL
same,Plasma Triglyceride,db/db mice; 50 mg/kg p.o. QD,97.55 ± 11.60 mg/dL
same,Absolute Liver Weight,db/db mice; 50 mg/kg p.o. QD,2.34 ± 0.06 g
same,Absolute Liver Weight (g) [table follows b2014 on epididymal adipose tissue weight],db/db mice; 50 mg/kg p.o. QD,2.58 ± 0.07 g
same,Relative Epididymal Tissue Weight,db/db mice; 50 mg/kg p.o. QD,0.061 ± 0.001 g
same,Relative Liver Weight,db/db mice; 50 mg/kg p.o. QD,0.056 ± 0.001 g
same,"15 min Plasma Glucose (mg/dL), OGTT","db/db mice; 50 mg/kg, OGTT day 21",670.72 ± 23.88 mg/dL
same,"30 min Plasma Glucose (mg/dL), OGTT","db/db mice; 50 mg/kg, OGTT day 21",560.85 ± 37.42 mg/dL
same,"60 min Plasma Glucose (mg/dL), OGTT","db/db mice; 50 mg/kg, OGTT day 21",485.98 ± 32.31 mg/dL
same,"120 min Plasma Glucose (mg/dL), OGTT","db/db mice; 50 mg/kg, OGTT day 21",378.40 ± 18.24 mg/dL
same,"glucose area under the curve (AUC), OGTT","db/db mice; 50 mg/kg, OGTT day 21",57436.00 ± 2283.79 mg·min/dL
same,"Fasting Plasma Glucose (mg/dL), OGTT",db/db mice; 50 mg/kg,204.64 ± 29.60 mg/dL
same,decrease in the plasma glucose compared to vehicle control (OGTT),"db/db mice; 50 mg/kg, significant",14%
same,"fasting blood glucose levels compared with vehicle control, dose dependence","db/db mice; 30 & 50 mg/kg p.o. QD, day 21, 28, and 36",dose-dependent decrease
same,"clinical signs, morbidity, mortality","db/db mice; 30 and 50 mg/kg oral, daily for 36 days","no observations of clinical signs or morbidity, and no mortality"
same,"glucose as measured by area under the curve (AUC), dose dependence","db/db mice; 30 and 50 mg/kg, OGTT day 21",dose dependent decreases
